Data taken from paper PMC9421654, “Discovery of Substituted Di(pyridin-2-yl)-1,2,4-thiadiazol-5-amines as Novel Macrofilaricidal Compounds for the Treatment of Human Filarial Infections” (Journal of Medicinal Chemistry, 2022).
Values after ≈ are worked out from the molar mass of the structure shown. Where two headings read alike, the source gives them in different places.

Key:
[1] = Liver S9 metabolic stability assay, human; type: in vitro ADME; settings: 3 μM, 60 min
Description: (§1) Liver S9 Metabolic Stability Assay: Incubations were performed at 37 °C in a Dubnoff Shaking water bath using 2 mL 96-well incubation plates. Rat and human S9 protein concentrations were 0.75 mg/ml and 1.2 mg/ml, respectively. The final concentrations of NADPH, UDPGA, and GSH were 1, 0.5, and 2.5 mM, and the final concentration of PAPS was 0.05 mg/ml. Substrate concentrations were 3µM, incubation time was 60 minutes, and all tests were done in triplicate. The incubation was conducted in 200 mM Tris buffer containing 2 mM magnesium chloride, pH=7.4 and the total incubation volume was 0.5 ml. Samples were analysed via LC-MS/MS and reported as percentage remaining after incubation for 60 minutes. […]

[2] = system: O. gutturosa adult male worms; test: O. gutturosa adult worm ex vivo assay, MTT/formazan viability; type: cell-based, Onchocerca gutturosa; settings: supplement, SD in brackets in the PDF table, read-out: O. gutturosa EC50 (uM) MTT viability inhibition
Description: (§2) Activity against O. gutturosa adult male worms was determined using reported procedures.[7] The EC50 values were calculated using Microsoft Office Excel (2010) data analysis software. The tested compound is considered active when a motility reduction of ≥50% is observed by comparison to the untreated controls. O. gutturosa adult male worms were obtained postmortem from freshly slaughtered cattle. The worms were dissected from the nuchal ligament connective tissues of naturally infected cattle in Gambia, West Africa; the material was purchased from the International Trypanotolerance Centre, Banjul, from local butchers for use in this study. The adult worms were transferred individually to each well of a sterile 24-well (2 mL) plate (Thermo Fisher Scientific, UK) and maintained for at least 24 h in culture before use. The medium used was a minimum essential medium (MEM) with Earl’s salts and L-glutamine (Life Technologies Ltd., UK) supplemented with 10% heat inactivated newborn calf serum (Life Technologies Ltd., UK), 200 units/mL penicillin, 200 μg/mL streptomycin, and 0.5 μg/mL amphotericin B (Life Technologies Ltd., UK). Only normally active worms were used for the test, and all assays were conducted at 37 °C and 5% CO2. The positive control drug used was Immiticide (melarsomine dihydrochloride, Merial, USA). Known amounts of compounds were solubilized in 1 mL of DMSO. All stock solutions were allowed to stand at room temperature prior to use. The test items (four worms/drug concentration) were compared to untreated controls (six worms) and the positive control (two worms/drug concentration). Drug efficacy was assessed by the measurement of mean worm motility scores on a scale of 0 (immotile) to 10 (maximum) every 24 h, terminating at 120 h, using an Olympus inverted microscope. The results are reported as a percentage of the maximum score obtainable (100%) by calculating the motility index scores. The test drug is considered active when a motility reduction of ≥50% is observed by comparison to the untreated controls. […] In addition, biochemical evaluation of worm viability was assessed using MTT/formazan colorimetry. The MTT assay was carried out after the last motility reading (120 h). Single intact worms were placed in each well of a 48-well plate (Thermo Fisher Scientific, UK) containing 0.5 mL of 0.5 mg/mL MTT (Sigma, UK) in PBS solution and then incubated for 30 min at 37 °C. The worms were removed, blotted carefully, and individually transferred to separate wells of a 96-well microtiter plate, each containing 200 μL of DMSO to solubilize the formazan. After 1 h, the plate was gently agitated to disperse the color evenly and the absorbance value (optical density, OD) of the resulting formazan solution was determined at 490 nm using an absorbance microplate reader (Biotek ELx800, Thermo Fisher Scientific, UK). The results are expressed as the mean OD per drug concentration. Inhibition of formazan formation is correlated with worm damage or death.

[3] = system: O. gutturosa adult male worms; test: O. gutturosa adult worm ex vivo assay, motility; type: cell-based, Onchocerca gutturosa; settings: Onchocerca gutturosa
Description: as §2
Data S1. Onchocerca gutturosa adult male worms EC 50 Curves
Plotted using Graph Pad Prism 7.03, least square original fit, sigmoidal, 4PL
The measurement of mean worm motility every 24 h, terminating at 120 h, serial 1 in 4 drug dilutions to find
activity endpoint and produce EC50 values (geomean, n=2) for motility reduction. (4 worms per drug […]

[4] = Kinetic solubility measurement; type: physicochemical; settings: 10 mM DMSO stock solutions
Description: Kinetic Solubility Measurement: The standard kinetic solubility assay runs on […] concentration range using 10 mM DMSO stock solutions for plating. Single point calibration assay runs in duplicates. Concentration of standards: […] DMSO solutions prepared by diluting 10 mM stock, solution with DMSO. Concentration of samples: 200 µM, 4 µl 10 mM DMSO stock solution diluted with the appropriate buffer to […]. DMSO content:
2%. Buffers: pH=7.4 (0.1M Potassium phosphate buffer, diluted from Sigma 1M P3619-1GA to 0.1 M with MilliQ water), pH=2.2 (0.1M- NaCl pH adjusted with 0.1N HCL), pH=6.8 (0.1M - KH2PO4/K2HPO4), pH=5 (4 .04g of NaOH (Pellets), 8.65g of Glacial Acetic Acid, 11.874g of NaCl. In in 1 liter water. Adjusted to pH to 5 with either 1N NaOH or 1N HCl). The controls were plated from the standard 10 mM DMSO stock and run on the standard concentration (200µM) range of the assay. Incubation time: 24 hours shaking at […] in Millipore Multiscreen HTS filter plate for Aqueous Solubility Assay (MSSLBPC50), on room temperature.
After incubation time filtration with positive pressure manifold was performed. […]

[5] = Liver S9 metabolic stability assay, rat; type: in vitro ADME; settings: 3 μM, 60 min
Description: as §1

[6] = LogD measurement (octanol-water); type: physicochemical
Description: LogD Measurement: Measurement of octanol-water distribution coefficient of samples using a […]
stock solutions for plating. Aqueous Phase: 100mM Buffer, pH=7.4 (0.1M Potassium phosphate buffer, diluted from Sigma 1M P3619-1GA to 0.1 M with MilliQ water), pH=2.2 (0.1M- NaCl pH adjusted with 0.1N HCL), pH=6.8 (0.1M - KH2PO4/K2HPO4), pH=5 (4 .04g of NaOH (Pellets), 8.65g of Glacial Acetic Acid, 11.874g of NaCl. In in 1 liter water. Adjusted to pH to 5 with either 1N NaOH or 1N HCl); Organic Phase: 1-Octanol (O021). Sample Concentration:
1000uM, […] 10 mM DMSO stock solution diluted in […] of organic Phase and […] of aqueous Phase. DMSO content: 10%. The controls were plated from the standard 10 mM DMSO stock and run on the standard concentration ([…]) range of the assay. Incubation time:
Sonication for 30 minutes followed by 24 hours shaking at 750 rpm in 96 deep well plate (VWR

[7] = read-out: O. gutturosa EC50 μM (SD), ex vivo adult worm motility reduction, SD in brackets
[8] = supplement, read-out: measured logD
[9] = read-out: O. gutturosa EC50 (uM) motility inhibition, supplement, SD in brackets in the PDF table

SMILES: Cc1cccnc1Nc1nc(-c2ccc(C#N)cn2)ns1 [Compound 13, 6-(5-((3-Methylpyridin-2-yl)amino)-1,2,4-thiadiazol-3-yl)nicotinonitrile]
- Human S9 metabolic stability [1]: 66 % remaining
- EC50 ([2]; Onchocerca gutturosa): 20 µM
- EC50 [3, 7]: 5.8 µM
- solubility kinetic at 24 h [4]: 0.55 µM (≈ 0.162 µg/mL)
- Rat S9 metabolic stability [5]: 73 % remaining
- logD at 24 h ([6]; pH 7.4, read-out: logD): 2.75
- logD at 24 h [6, 8]: 2.75

SMILES: Cc1cccnc1Nc1nc(-c2ccc(OC3CCOCC3)cn2)no1 [Compound 6, N-(3-Methylpyridin-2-yl)-3-(5-((tetrahydro-2H-pyran-4-yl)oxy)pyridin-2-yl)-1,2,4-oxadiazol-5-amine]
- Human S9 metabolic stability [1]: 98 % remaining
- EC50 ([2]; Onchocerca gutturosa): 4.1 µM
- EC50 [2]: 4.06 µM
- EC50 [3, 7]: 0.07 µM
- EC50 [3, 9]: 0.072 µM
- solubility kinetic at 24 h [4]: 57.5 µM (≈ 20.3 µg/mL)
- Rat S9 metabolic stability [5]: 85 % remaining
- logD at 24 h [6, 8]: 1.7

SMILES: Cc1cccnc1N(c1nc(-c2ccc(OC(C)C)cn2)ns1)C(C)C [Compound 43, 3-(5-Isopropoxypyridin-2-yl)-N-isopropyl-N-(3-methylpyridin-2-yl)-1,2,4-thiadiazol-5-amine]
- Human S9 metabolic stability [1]: 79 % remaining
- EC50 ([2]; Onchocerca gutturosa): 3.4 µM
- EC50 [3, 7]: 3.3 µM
- solubility kinetic at 24 h [4]: 118 µM (≈ 43.6 µg/mL)
- Rat S9 metabolic stability [5]: 60 % remaining
- logD at 24 h ([6]; pH 7.4, read-out: logD): 3.1
- logD at 24 h [6, 8]: 3.1

SMILES: COc1cccnc1Nc1nc(-c2cc(C)ccn2)ns1 [Compound 29, N-(3-Methoxy-2-pyridyl)-3-(4-methyl-2-pyridyl)-1,2,4-thiadiazol-5-amine]
- Human S9 metabolic stability [1]: 72 % remaining
- EC50 ([2]; Onchocerca gutturosa): 0.88 µM
- EC50 [3, 7]: 0.12 µM
- EC50 [3, 9]: 0.121 µM
- solubility kinetic at 24 h [4]: 26.5 µM (≈ 7.93 µg/mL)
- Rat S9 metabolic stability [5]: 70 % remaining
- logD at 24 h ([6]; pH 7.4, read-out: logD): 2.1
- logD at 24 h [6, 8]: 2.1

SMILES: Cc1cccnc1Nc1nc(-c2cc(C3CCN(C)CC3)ccn2)ns1 [Compound 22]
- Human S9 metabolic stability [1]: 78 % remaining
- EC50 ([2]; Onchocerca gutturosa): 13.1 µM
- EC50 [3, 7]: 0.2 µM
- EC50 [3, 9]: 0.198 µM
- solubility kinetic at 24 h [4]: 184 µM (≈ 67.5 µg/mL)
- Rat S9 metabolic stability [5]: 81 % remaining
- logD at 24 h ([6]; pH 7.4, read-out: logD): 2
- logD at 24 h [6, 8]: 2

SMILES: Cc1cccnc1Nc1nc(-c2cnc(OC(C)C)cn2)ns1 [Compound 39, 3-(5-Isopropoxypyrazin-2-yl)-N-(3-methyl-2-pyridyl)-1,2,4-thiadiazol-5-amine]
- Human S9 metabolic stability [1]: 81 % remaining
- EC50 ([2]; Onchocerca gutturosa): 1.1 µM
- EC50 [3, 7]: 0.29 µM
- EC50 [3, 9]: 0.286 µM
- solubility kinetic at 24 h [4]: 2.1 µM (≈ 0.69 µg/mL)
- Rat S9 metabolic stability [5]: 74 % remaining
- logD at 24 h ([6]; pH 7.4, read-out: logD): 3.1
- logD at 24 h [6, 8]: 3.1

SMILES: c1ccc(Nc2nc(-c3ccccn3)ns2)nc1 [Compound 9, N,3-Di(pyridin-2-yl)-1,2,4-thiadiazol-5-amine]
- Human S9 metabolic stability [1]: 83 % remaining
- EC50 ([2]; Onchocerca gutturosa): 1.1 µM
- EC50 [3, 7]: 0.16 µM
- EC50 [3, 9]: 0.155 µM
- solubility kinetic at 24 h [4]: 8.2 µM (≈ 2.09 µg/mL)
- Rat S9 metabolic stability [5]: 83 % remaining
- logD at 24 h ([6]; pH 7.4, read-out: logD): 1.8
- logD at 24 h [6, 8]: 1.8

SMILES: Cc1cccnc1Nc1nc(-c2cc(C#N)ccn2)ns1 [Compound 14]
- Human S9 metabolic stability [1]: 65 % remaining
- EC50 ([2]; Onchocerca gutturosa): 4.5 µM
- EC50 [3, 7]: 3.1 µM
- solubility kinetic at 24 h [4]: 2.55 µM (≈ 0.751 µg/mL)
- Rat S9 metabolic stability [5]: 78 % remaining
- logD at 24 h ([6]; pH 7.4, read-out: logD): 2
- logD at 24 h [6, 8]: 2

SMILES: CC(C)c1cnc(Nc2nc(-c3ncccc3OC3CC3)ns2)cc1C(F)(F)F [Compound 38, 3-(3-Cyclopropoxypyridin-2-yl)-N-(5-isopropyl-4-(trifluoromethyl)pyridin-2-yl)-1,2,4-thiadiazol-5-amine]
- Human S9 metabolic stability [1]: 100 % remaining
- EC50 ([2]; Onchocerca gutturosa): < 0.02 µM
- EC50 [2]: < 0.015 µM
- EC50 [3, 7]: 0.02 µM
- EC50 [3, 9]: 0.017 µM
- solubility kinetic at 24 h [4]: 1.03 µM (≈ 0.434 µg/mL)
- Rat S9 metabolic stability [5]: 93 % remaining
- logD at 24 h ([6]; pH 7.4, read-out: logD): 2.95
- logD at 24 h [6, 8]: 2.95

SMILES: Cc1cccnc1Nc1nc(-c2cc(C(=O)N(C)C)ccn2)ns1 [Compound 16]
- Human S9 metabolic stability [1]: 89 % remaining
- EC50 ([2]; Onchocerca gutturosa): 1.1 µM
- EC50 [3, 7]: 3.28 µM
- solubility kinetic at 24 h [4]: 26.5 µM (≈ 9.02 µg/mL)
- Rat S9 metabolic stability [5]: 78 % remaining
- logD at 24 h ([6]; pH 7.4, read-out: logD): 1.9
- logD at 24 h [6, 8]: 1.9
